Source: PubChem BioAssay AID2124 (Sanford-Burnham Center for Chemical Genomics, 2009)
Inconclusive results are not listed. Active and inactive are the calls of the source. The rule behind the calls is not given here; tested in MIN6 cells.

Assay: cell-permeable autofluorescent compounds in GFP channel, dose response, artefact control, imaging, high-content imaging (AID 2124);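 note: cells exposed to compound for 48 hours before fixing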
Conditions: cells, GFP-channel autofluorescence, high-content imaging, at 10 µM; for z-score: stronger effect = higher value

Row | SMILES | z-score | cell count [cells]
1 | Cc1cc(/C=C2\SC(=S)NC2=O)c(C)n1-c1ccc(O)cc1 | -0.36 (inactive) | 3000
2 | CC(=O)c1sc2nc(-c3cccs3)cc(C(F)(F)F)c2c1N | 0.17 | 3260
3 | CCCC(=O)c1c(C)c2ccccc2n1C | -0.38 (inactive) | 3160
4 | CCc1cc2c(CN3CCN(CCO)CC3)cc(=O)oc2cc1O | -0.38 (inactive) | 3140
5 | Cc1ccc2nc(/C(C#N)=C\c3ccc(N4CCOCC4)o3)[nH]c2c1 | 0.7 | 2680
6 | O=C(N/N=C\c1cn(-c2ccccc2)nc1-c1ccccc1)c1ccc(Br)o1 | -0.32 (inactive) | 626
7 | Cc1ccc(NC(=O)CCn2cccc2)cc1Cl | -0.33 (inactive) | 3190
8 | COc1ccccc1NC(=O)/C=C1\SCC(=O)N1C | -0.25 (inactive) | 3000
9 | O=C(O)CC12CSc3[nH]c(=O)sc3C1c1ccccc1OC2=O (stereo not given) | -0.33 (inactive) | 3020
10 | N#CCc1nc(CSc2nc3ccccc3s2)cs1 | -0.32 (inactive) | 2980
11 | COc1ccc(N(C(=O)Cc2cccs2)C2C=CS(=O)(=O)C2)cc1 (stereo not given) | -0.39 (inactive) | 3350
12 | CCOc1ccc(NC(=O)C2CCC(C)(C(=O)O)C2(C)C)cc1 (stereo not given) | -0.39 (inactive) | 3170
13 | CCN(CC)c1ccc2cc(-c3nc4ccccc4[nH]3)c(=O)oc2c1 | 5.37 | 1680
14 | CNC(=S)NNC(=O)c1oc2nc(-c3ccccc3)cc(-c3ccco3)c2c1N | -0.3 (inactive) | 2940
15 | CC1(C)Cc2c(c(-c3ccccc3)[nH]c(=O)c2C#N)CO1 | -0.33 (inactive) | 3520
16 | C=CCN1C(=O)/C(=C/C=C2/N(CC)c3ccc(S(=O)(=O)N(C)C)cc3N2CC)SC1=S | 0.26 | 2740
17 | N#Cc1nc(N2CCOCC2)nc(N2CCOCC2)n1 | -0.39 (inactive) | 3120
18 | Cc1cc(/C=N/n2cnnc2)c(C)n1-c1cccc(C(=O)O)c1 | -0.33 (inactive) | 2960
19 | N#Cc1ccc(-c2ccccc2)nc1SCC(=O)c1cccc(Cl)c1 | -0.23 (inactive) | 3340
20 | CCN(CC)c1ccc(/C=C2/SC(=O)N(C(C)C)C2=O)o1 | 0.73 | 596

Row | SMILES | z-score | cell count [cells]
21 | Cc1oc(C)c2c(=O)ccc3c(c12)OC(N)=C(C#N)C3c1ccccc1 (stereo not given) | -0.38 (inactive) | 2830
22 | COCCNC(=S)N/N=C(\C)c1ccc2cc(OC)ccc2c1 | -0.33 (inactive) | 2790
23 | COc1ccc(N=C2NC(=O)S/C2=C\c2ccc(N(C)C)cc2)cc1 | -0.25 (inactive) | 2870
24 | NCC12CC3CC(C1)CC(CN)(C3)C2 | -0.36 (inactive) | 3300
25 | Cc1cnc(NC(=O)CN2CCN(c3ccccn3)CC2)s1 | -0.39 (inactive) | 2360
26 | O=c1[nH]c(/C=C/c2ccccc2OC(F)F)nc2c1cnn2-c1ccccc1 | -0.38 (inactive) | 2240
27 | COc1cc(N2CCCC2)c(OC)cc1/C=C(/C#N)c1cccc(Br)c1 | 0.19 | 3340
28 | Fc1ccc(C2NCCn3cccc32)cc1 (stereo not given) | -0.38 (inactive) | 2950
29 | Nc1c(C(=O)NC2CCCC2)sc2nc(-c3cccs3)ccc12 | -0.31 (inactive) | 2460
30 | COc1cccc(C(=O)Nc2ccccc2C(=O)N2CCCC2)c1 | -0.39 (inactive) | 3120
31 | Cc1cccc(NC(=O)/C=C/c2ccc([N+](=O)[O-])s2)c1 | 0.41 | 244
32 | CCN(CC)C(=O)c1sc2nc(-c3cccs3)cc(-c3cccs3)c2c1N | -0.2 (inactive) | 3420
33 | Cc1cc(C)nc(N2CCC(C(=O)Nc3ccc4c(c3)OCCO4)CC2)n1 | -0.33 (inactive) | 2790
34 | C=CCC(c1ccccc1)N(C(C)=O)c1ccco1 (stereo not given) | -0.33 (inactive) | 3430
35 | CCOc1ccc(CNC(=O)CCn2c(=O)oc3ccccc32)cc1 | -0.38 (inactive) | 3060
36 | CN(C)c1ccc(/C=N/NC(=O)CN(c2ccccc2Cl)S(C)(=O)=O)cc1Br | -0.39 (inactive) | 3330
37 | COc1cccc(NC(=O)Cn2c(-c3cncs3)nc3ccccc32)c1 | -0.39 (inactive) | 3160
38 | COc1cc2cc(C)c3nnc(SCC(=O)Nc4cc(C)on4)n3c2cc1OC | -0.33 (inactive) | 2840
39 | CCc1ccccc1N1C(=O)/C(=C/c2ccc(N3CCN(C)CC3)o2)C(=O)NC1=S | -0.35 (inactive) | 2580
40 | Cc1cc(C)cc(N=Cc2[nH]c3ccc(Br)c(Cl)c3c2O)c1 | 0.1 | 2820
